In ChEMBL document CHEMBL1268973, “Flavonoids from Dracocephalum tanguticum and their cardioprotective effects against doxorubicin-induced toxicity in H9c2 cells” (Bioorg Med Chem Lett, 2010):
Activity calls are given as the source filed them. The calls are words filed in the database; no cut-off is given here.

Key:
[1] = Antioxidant activity assessed as ABTS radical scavenging activity; format: functional
H9c2 [2] = assay: Cytoprotective activity against doxorubicin-induced cytotoxicity in rat H9c2 cells assessed as cell viability after 24 hrs by MTT assay; format: functional, cell-based
[3] = system: Radical scavenging activity; assay: Antioxidant activity of the compound assessed as DPPH radical scavenging activity after 30 mins; format: functional
[4] = Antioxidant activity assessed as ferrous ion chelating activity; format: functional
H9c2 [5] = assay: Cytoprotective activity against rat H9c2 cells assessed as inhibition of doxorubicin-induced intracellular ROS elevation at 5 to 20 uM after 24 hrs; format: functional, cell-based
H9c2 [6] = assay: Cytoprotective activity against rat H9c2 cells assessed as reduction in doxorubicin-induced LDH release at 5 to 20 uM after 24 hrs; format: functional, cell-based
H9c2 [7] = assay: Cytoprotective activity against rat H9c2 cells assessed as inhibition of doxorubicin-induced morphological changes at 10 to 40 uM after 24 hrs; format: functional, cell-based
H9c2 [8] = assay: Cytoprotective activity against in rat H9c2 cells assessed as inhibition of doxorubicin-induced cell death after 24 hrs by MTT assay; format: functional, cell-based
H9c2 [9] = assay: Cytoprotective activity against rat H9c2 cells assessed as inhibition of doxorubicin-induced intracellular Ca2+ elevation; format: functional, cell-based
H9c2 [10] = assay: Effect on doxorubicin-induced total apoptosis in rat H9c2 cells at 20 uM; format: functional, cell-based
H9c2 [11] = assay: Cytoprotective activity against rat H9c2 cells assessed as reduction in doxorubicin-induced CK release at 5 to 20 uM after 24 hrs; format: functional, cell-based
[12] = Rattus norvegicus, H9c2, 24 h, read-out: EC50

O=C1C[C@@H](c2ccc(O)c(O)c2)Oc2cc(O)cc(O)c21 [ERIODICTYOL] showed an EC50 [1] of 1.15 µM, an EC50 (H9c2 [2]; [12]) of 25.5 µM and an EC50 [3] of 98.8 µM. For the same compound, the EC50 [4] was 8370 µM.

COc1cc2oc(-c3ccc(O)c(O[C@@H]4O[C@H](CO)[C@@H](O)[C@H](O)[C@H]4O)c3)cc(=O)c2c(O)c1O showed an EC50 [1] of 15.7 µM, an EC50 (H9c2 [2]; [12]) of 13.1 µM and an EC50 [3] of 31 µM. For the same compound, the EC50 [4] was 60 µM.

Compound CCOC(=O)[C@H]1O[C@@H](Oc2cc(O)c3c(=O)cc(-c4ccc(O)c(O)c4)oc3c2)[C@H](O)[C@@H](O)[C@@H]1O has an EC50 [1] of 87.8 µM, an EC50 (H9c2 [2]; [12]) of 6.34 µM and an EC50 [3] of 13.2 µM. For the same compound, the EC50 [4] was 3310 µM.

In the case of COc1cc2oc(-c3ccc(O)cc3)cc(=O)c2c(O)c1O, the EC50 [1] is reported as 13.4 µM, the EC50 (H9c2 [2]; h9c2) is reported as “Not Active” and the EC50 [3] is reported as 20 µM.

O=c1cc(-c2ccc(O)c(O)c2)oc2cc(O)cc(O)c12 [LUTEOLIN] gave an EC50 [1] of 105 µM, an EC50 (H9c2 [2]; [12]) of 5.53 µM and an EC50 [3] of 6.12 µM. The EC50 [4] was 12000 µM.

For O=C1C[C@@H](c2ccc(O)c(O)c2)Oc2cc(O[C@@H]3O[C@H](CO)[C@@H](O)[C@H](O)[C@H]3O)cc(O)c21, the EC50 [1] was 7.26 µM, the EC50 (H9c2 [2]; [12]) was 38.2 µM and the EC50 [3] was 15.6 µM. For the same compound, the EC50 [4] was 213000 µM.

For COc1cc2oc(-c3ccc(O)c(O)c3)cc(=O)c2c(O)c1O[C@@H]1O[C@H](CO)[C@@H](O)[C@H](O)[C@H]1O, the EC50 [1] was 86.1 µM, the EC50 (H9c2 [2]; h9c2) was “Not Active” and the EC50 [3] was 81.2 µM. The EC50 [4] was 27600 µM.

For COc1cc2oc(-c3ccc(O)cc3)cc(=O)c2c(O)c1O[C@@H]1O[C@H](COC(C)=O)[C@@H](O)[C@H](O)[C@H]1O, the EC50 [1] was 12.3 µM, the EC50 (H9c2 [2]; h9c2) was “Not Active” and the EC50 [3] was 113 µM. For the same compound, the EC50 [4] was 4510 µM.

In the case of O=C1C[C@@H](c2ccc(O)cc2)Oc2cc(O)cc(O)c21 [NARINGENIN], the EC50 [1] is reported as 13.5 µM, the EC50 (H9c2 [2]; h9c2) is reported as “Not Active” and the EC50 [3] is reported as 72.3 µM. It also gave an EC50 [4] of 21400 µM.

For O=c1cc(-c2ccc(O)c(O)c2)oc2cc(O[C@@H]3O[C@H](CO)[C@@H](O)[C@H](O)[C@H]3O)cc(O)c12 [GALUTEOLIN], the Activity (H9c2 [5]) was “Active”, the Activity (H9c2 [6]) was “Active” and the EC50 [1] was 56.5 µM. For the same compound, the EC50 (H9c2 [2]; [12]) was 5.04 µM, the Activity (H9c2 [7]) was “Active” and the Activity (H9c2 [8]) was “inactive”. For the same compound, the Activity (H9c2 [9]) was “Dose-dependent effect”, the EC50 [3] was 3.94 µM and the Activity (H9c2 [10]) was “inactive”. The Activity (H9c2 [11]) was “Active” and the EC50 [4] was 1100 µM.

Work on O=c1cc(-c2ccc(O)cc2)oc2cc(O[C@@H]3O[C@H](CO)[C@@H](O)[C@H](O)[C@H]3O)cc(O)c12 [APIGETRIN] yielded an EC50 [1] of 13.1 µM, an EC50 (H9c2 [2]; [12]) of 12.3 µM and an EC50 [3] of 20.4 µM.

Compound COc1cc2oc(-c3ccc(O)c(O)c3)cc(=O)c2c(O)c1O[C@@H]1O[C@H](COC(C)=O)[C@@H](O)[C@H](O)[C@H]1O has an EC50 [1] of 76.2 µM, an EC50 (H9c2 [2]; [12]) of 19.1 µM and an EC50 [3] of 95.2 µM. The EC50 [4] was 1130 µM.

In the case of COc1cc2oc(-c3ccc(O)cc3)cc(=O)c2c(O)c1O[C@@H]1O[C@H](CO)[C@@H](O)[C@H](O)[C@H]1O, the EC50 [1] is reported as 581 µM, the EC50 (H9c2 [2]; h9c2) is reported as “Not Active” and the EC50 [3] is reported as 159 µM.

In the case of O=C1C[C@@H](c2cc(O)cc(O)c2)Oc2cc(O)cc(O)c21, the EC50 [1] is reported as 16.3 µM, the EC50 (H9c2 [2]; h9c2) is reported as “Not Active” and the EC50 [3] is reported as 32.1 µM. It also gave an EC50 [4] of 161000 µM.

With O=C1C[C@@H](c2ccc(O)cc2)Oc2cc(O[C@@H]3O[C@H](CO)[C@@H](O)[C@H](O)[C@H]3O)cc(O)c21 [PRUNIN] the EC50 [1] was 18.1 µM, the EC50 (H9c2 [2]; h9c2) was “Not Active” and the EC50 [3] was 40.6 µM.

In the case of COc1ccc(-c2cc(=O)c3c(O)cc(O[C@@H]4O[C@H](CO)[C@@H](O)[C@H](O)[C@H]4O)cc3o2)cc1 [TILIANINE], the EC50 [1] is reported as 400 µM, the EC50 (H9c2 [2]; h9c2) is reported as “Not Active” and the EC50 [3] is reported as 95 µM.
